What was measured:
[1] = target: T1, human A2B adenosine receptor (Homo sapiens, UniProt P29275); assay: competition binding, recombinant human A2B adenosine receptor; settings: A3 versus A2B
T1 construct: expressed in transfected cells; host or cells: COS7 cells
T1 sequence (P29275 1-332): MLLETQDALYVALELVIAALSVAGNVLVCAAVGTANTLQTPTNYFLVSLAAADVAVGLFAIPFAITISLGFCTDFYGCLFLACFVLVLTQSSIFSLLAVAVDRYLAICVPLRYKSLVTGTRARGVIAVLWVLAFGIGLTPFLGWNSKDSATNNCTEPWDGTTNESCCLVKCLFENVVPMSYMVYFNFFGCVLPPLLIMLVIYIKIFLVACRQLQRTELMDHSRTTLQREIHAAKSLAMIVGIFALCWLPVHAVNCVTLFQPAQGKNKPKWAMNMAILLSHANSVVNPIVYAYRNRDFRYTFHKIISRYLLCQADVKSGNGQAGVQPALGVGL
Description: Monolayer cell culture of transfected COS7 cells were dissociated with 1 mM EDTA in phosphate buffered saline and resuspended in 5 mM Tris, pH7.6/10 mM MgCl2. The cells were subjected to freeze-thaw lysis and the suspension was homogenized in a glass dounce homogenizer. The membranes were pelleted, resuspended in binding buffer, 50 mM Tris pH 7.6/10 mM MgCl2 and incubated with adenosine deaminase before the binding assay. The binding assay was performed by incubating 50-100 Fg of membranes with increasing concentrations of radiolabeled adenosine agonists. Bound ligand was separated from free ligand by filtration on a SKATRON CELL […] equipped with a receptor binding filtermat. Bound radioactivity was measured by scintillation counting. Substances which bind to or enhance binding to expressed human adenosine receptors in COS and CHO cells can be identified in competition binding assays with radiolabeled adenosine or xanthine analogs. […] Membranes were prepared from transiently transfected COS7 cells 48 h after transfection or from G418-selected stably transfected CHO or HEK 293 cells. […] Protein concentration was determined by tie method of Bradford ((1976) Anal. Biochem. 72: 248-250). […] Bound radioactivity was measured by scintillation counting. Non-specific binding was measured on membranes prepared from non-transfected COS7 cells.

[2] = target: T2, human A2A adenosine receptor (Homo sapiens, UniProt P29274); assay: competition binding, recombinant human A2A adenosine receptor; settings: A3 versus A2A
T2 construct: expressed in transfected cells; host or cells: COS7 cells
T2 sequence (P29274 whole entry): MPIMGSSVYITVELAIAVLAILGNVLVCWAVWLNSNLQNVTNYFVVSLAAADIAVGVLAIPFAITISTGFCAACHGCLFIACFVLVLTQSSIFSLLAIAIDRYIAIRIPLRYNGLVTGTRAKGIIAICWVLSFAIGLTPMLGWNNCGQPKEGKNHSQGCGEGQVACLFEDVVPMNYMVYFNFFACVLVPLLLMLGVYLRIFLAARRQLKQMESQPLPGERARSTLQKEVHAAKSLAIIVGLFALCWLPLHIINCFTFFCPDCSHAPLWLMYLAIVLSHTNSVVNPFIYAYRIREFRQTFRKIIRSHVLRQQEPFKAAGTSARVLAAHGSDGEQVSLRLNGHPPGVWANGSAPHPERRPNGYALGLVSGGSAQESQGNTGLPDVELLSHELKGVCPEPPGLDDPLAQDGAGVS
Description: Monolayer cell culture of transfected COS7 cells were dissociated with 1 mM EDTA in phosphate buffered saline and resuspended in 5 mM Tris, pH7.6/10 mM MgCl2. The cells were subjected to freeze-thaw lysis and the suspension was homogenized in a glass dounce homogenizer. The membranes were pelleted, resuspended in binding buffer, 50 mM Tris pH 7.6/10 mM MgCl2 and incubated with adenosine deaminase before the binding assay. The binding assay was performed by incubating 50-100 Fg of membranes with increasing concentrations of radiolabeled adenosine agonists. Bound ligand was separated from free ligand by filtration on a SKATRON CELL […] equipped with a receptor binding filtermat. Bound radioactivity was measured by scintillation counting. Substances which bind to or enhance binding to expressed human adenosine receptors in COS and CHO cells can be identified in competition binding assays with radiolabeled adenosine or xanthine analogs. […] Protein concentration was determined by tie method of Bradford ((1976) Anal. Biochem. 72: 248-250). […] Bound radioactivity was measured by scintillation counting in READY SAFE SCINTILLATION COCKTAIL (BECKMAN). […] Non-specific binding was determined in the presence of 100 FM CPA. Bound radioactivity was measured by scintillation counting in READY SAFE LIQUID SCINTILLATION COCKTAIL (BECKMAN).

CCCn1c(=O)c2[nH]c(-c3cccc(C=CC(=O)O)c3)nc2n(CCC)c1=O [BW-3911]
fold selectivity for A3 compared to human A2B [1]: 70 fold | fold selectivity for A3 compared to human A2A [2]: 18 fold

From patent US6303619A, “Meta-substituted acidic 8-phenylxanthine antagonists of A3 human adenosine receptors” (priority 1998, dated 2001)
